The values below come from patent EP3628672A1 (priority 2018, dated 2020).

Test [1] has as its target T1, purified LasB protein from P. aeruginosa (Pseudomonas aeruginosa, UniProt P14756).
T1 construct: purchased Merck or Charles River Laboratories
Put plainly: Fluorometric assay to determine Ki (Abz-Ala-Gly-Leu-Ala-p-Nitro-Benzyl-Amide substrate). The format is biochemical. A digest of the protocol:
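Purified P. aeruginosa LasB (10–140 ng/ml) with 250 µM Abz-Ala-Gly-Leu-Ala-p-nitrobenzylamide in 50 mM Tris-HCl pH 7.4, 2.5 mM CaCl2, 0.01% Triton X100, 37 °C; hydrolysis fluorescence (Ex 340/Em 415 nm) followed over 30 min, inhibitor 0.0016–200 µM. Ki = IC50/(1+[S]/Km), Km 214 µM.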

For the next test, the target named is T2, LasB (Pseudomonas aeruginosa, UniProt P14756).
T2 construct: uses as source of enzyme dialysed supernatant from P. aeruginosa PAO1; endogenous in cells; host or cells: P. aeruginosa PAO1 culture supernatant, filtered and dialysed
Put plainly: Elastin assay to determine % inhibition (Elastin Congo-Red, dialysed culture supernatant). The format is biochemical, P. aeruginosa PAO1. Particulars: read-out: Elastin hydrolysis % inhibition @ 50 / 25 µM inhibitor concentration. In a few lines: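 Enzyme source was dialysed PAO1 culture supernatant (50 mM Tris-HCl pH 7.4, 2.5 mM CaCl2), mixed with Elastin Congo-Red and 0.01% Triton X-100. Compound was routinely 50 to 1.56 µM, incubated overnight at 37 °C with shaking. Dye release at OD495 gave % inhibition relative to DMSO and no-enzyme controls.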

Another test has as its system CFBE. Put plainly: Cellular model: IL-6 content (ELISA) in lung epithelial cells treated with PAO1 supernatant. It is filed as cell-based, human. Conditions: PAO1 supernatant pre-incubated with compound 1h at 37°C, 6h incubation. From the text: (§1) These degradations are beneficial for P. aeruginosa pathogenesis by inhibiting antimicrobial peptide while impairing lung function of the host by promoting lung damage and inhibiting epithelial cell repair. In mice, intranasally instillated LasB induced significant inflammation, injury and death. […] Our compounds are therefore been tested in cellular models to define inhibitory effect of our series on LasB deleterious effect on human lung epithelial cell models (NCI-H292 and CFBE). Supernatants from PAO1 wild type and lasB mutant (PAO1ΔlasB) are pre-incubated with Example 1 at 10 times the final concentrations for 1h at 37°C. Then, supernatants are added to cell lines. After 6h incubation, cell culture supernatants are recovered, IL-6 and Trappin-2 contents are analysed by ELISA method. A Student t-Test is performed to assess the statistical significance between conditions (p < 0.05, *). NCI-H292 and CFBE cells express respectively Trappin-2 and IL-6. Whether treatment with culture supernatant from PAO1ΔlasB induces an overexpression of both immune factors, the treatment with PAO1 supernatant lead to strong reduction of IL-6 and Trappin-2 detected. LasB, hydrolyzing IL-6 and Trappin-2, hijacks the immune response against PA. […] By restoring immune response and secretion of IL-6 and Trappin-2, Example 1 and related LasB inhibitors may restore eradication of PA by the immune system.
On the technique in general: In an ELISA, binding on a coated surface is turned into a signal by an enzyme label.

Another test relates to NCI-H292. Put plainly: Cellular model: Trappin-2 content (ELISA) in lung epithelial cells treated with PAO1 supernatant. It is filed as cell-based, human. Conditions: PAO1 supernatant pre-incubated with compound 1h at 37°C, 6h incubation.
Text: as §1

Some results are limits rather than exact numbers.

T2 sequence (P14756 198-498): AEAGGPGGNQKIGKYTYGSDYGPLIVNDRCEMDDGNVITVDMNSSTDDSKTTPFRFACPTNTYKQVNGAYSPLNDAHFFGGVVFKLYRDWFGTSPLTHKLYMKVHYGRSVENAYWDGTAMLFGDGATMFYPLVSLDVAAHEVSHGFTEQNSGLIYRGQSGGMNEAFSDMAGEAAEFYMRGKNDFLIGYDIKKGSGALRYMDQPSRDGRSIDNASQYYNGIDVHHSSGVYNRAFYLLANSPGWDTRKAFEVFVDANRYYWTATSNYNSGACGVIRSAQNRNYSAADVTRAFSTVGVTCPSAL
T1 sequence (P14756 198-498): as above

Regarding `O=C(O)CC1(C(=O)NCc2nc(-c3ccccc3)cs2)Cc2ccccc2C1` [Example 1, 2-[2-[(4-phenylthiazol-2-yl)methylcarbamoyl]indan-2-yl]acetic acid], the inhibition constant (Ki) (commonly a dissociation constant, usually derived from enzyme kinetics or from competition with a known ligand) in test [1] was 50 to 200 nM. The inhibition at 25 µM at LasB is more than 75%. Besides, the “level of IL-6” value with CFBE is “restored in a dose response maneer level of both Trappin-2 and IL-6 similar to the control”. Besides, the “level of Trappin-2” value with NCI-H292 was “restored in a dose response maneer level of both Trappin-2 and IL-6 similar to the control”.
For the compound `COc1ccc(-c2csc(CNC(=O)C3(CC(=O)O)Cc4ccccc4C3)n2)cc1C(=O)N1CCC(N(C)C)CC1` [Example 137, 2-[2-[[4-[3-[4-(dimethylamino)piperidine-1-carbonyl]-4-methoxy-phenyl]thiazol-2-yl]methylcarbamoyl]indan-2-yl]acetic acid], the Ki in test [1] was in the range of 50 to 200 nM. In addition, the inhibition at 25 µM on LasB was 10 to 60%.
`COc1ccc(-c2csc(CNC(=O)C3(CC(=O)[O-])Cc4ccccc4C3)n2)cc1C(=O)N1CCC([N+](C)(C)C)CC1` [Example 138, 2-[2-[[4-[4-methoxy-3-[4-(trimethylammonio)piperidine-1-carbonyl]phenyl]thiazol-2-yl]methylcarbamoyl]indan-2-yl]acetate] showed an inhibition constant Ki in test [1] of 200 to 10000 nM. For the same compound, at LasB, the inhibition at 25 µM lay in the range of 10 to 60%.
The like results for `CN(C)C1CCN(S(=O)(=O)c2cc(-c3csc(CNC(=O)C4(CC(=O)O)Cc5cc(F)c(F)cc5C4)n3)ccc2OCCCN2CCCC2)CC1` [Example 139, 2-[2-[[4-[3-[[4-(dimethylamino)-1-piperidyl]sulfonyl]-4-(3-pyrrolidin-1-ylpropoxy)phenyl]thiazol-2-yl]methylcarbamoyl]-5,6-difluoro-indan-2-yl]acetic acid] were, in that order, 50 to 200 nM and 10 to 60%.
The compound `C[N+]1(CCc2ccc(-c3csc(CNC(=O)C4(CC(=O)[O-])Cc5ccccc5C4)n3)cn2)CCOCC1` [Example 141, 2-[2-[[4-[6-[2-(4-methylmorpholin-4-ium-4-yl)ethyl]-3-pyridyl]thiazol-2-yl]methylcarbamoyl]indan-2-yl]acetate] showed a Ki in test [1] of 50 to 200 nM. At LasB, the inhibition at 25 µM was 60 to 75%.
Take `O=C(O)CC1(C(=O)NCc2nc(-c3ccc(OCc4ccncc4)nc3)cs2)Cc2ccccc2C1` [Example 142, 2-[2-[[4-[6-(4-pyridylmethoxy)-3-pyridyl]thiazol-2-yl]methylcarbamoyl]indan-2-yl]acetic acid]: the inhibitory constant (Ki) in test [1] was less than 50 nM. The inhibition at 25 µM on LasB was more than 75%.
The like results for `C[n+]1ccc(COc2ccc(-c3csc(CNC(=O)C4(CC(=O)[O-])Cc5ccccc5C4)n3)cn2)cc1` [Example 143, 2-[2-[[4-[6-[(1-methylpyridin-1-ium-4-yl)methoxy]-3-pyridyl]thiazol-2-yl]methylcarbamoyl]indan-2-yl]acetate] were, in that order, 50 to 200 nM and 10 to 60%.
Take `O=C(O)CC1(C(=O)NCc2nc(-c3ccccc3OC(F)(F)F)cs2)Cc2ccccc2C1` [Example 145, 2-[2-[[4-[2-(trifluoromethoxy)phenyl]thiazol-2-yl]methylcarbamoyl]indan-2-yl]acetic acid]: in test [1], the Ki is 50 to 200 nM. In addition, the inhibition at 25 µM at LasB lay within 60 to 75%.
As for `COc1ccccc1-c1csc(CNC(=O)C2(CC(=O)O)Cc3ccccc3C2)n1` [Example 146, 2-[2-[[4-(2-methoxyphenyl)thiazol-2-yl]methylcarbamoyl]indan-2-yl]acetic acid], the inhibition constant (Ki) in test [1] fell in the range of 50 to 200 nM. Also, the inhibition at 25 µM on LasB was 60 to 75%.
In test [1], `CCc1ccccc1-c1csc(CNC(=O)C2(CC(=O)O)Cc3ccccc3C2)n1` [Example 147, 2-[2-[[4-(2-ethylphenyl)thiazol-2-yl]methylcarbamoyl]indan-2-yl]acetic acid] came in with a Ki of 50 to 200 nM. Also, the inhibition at 25 µM at LasB was in the range of 60 to 75%.
In the case of `O=C(O)CC1(C(=O)NCc2nc(-c3ccccc3CO)cs2)Cc2ccccc2C1` [Example 148, 2-[2-[[4-[2-(hydroxymethyl)phenyl]thiazol-2-yl]methylcarbamoyl]indan-2-yl]acetic acid], the inhibition constant Ki in test [1] lay within 50 to 200 nM. Further, the inhibition at 25 µM at LasB lay within 60 to 75%.
